Key:
KRAS G12C = KRAS G12C (Homo sapiens (Human), UniProt P01116, C118A/G12C); experiment: 2 h coupled exchange assay; assay type: biochemical; details: Avg 2 h Coupled exchange IC50, 2 h compound pre-incubation
Protocol: The term “2 h coupled exchange assay” or “20 h coupled exchange assay” as used herein refers to the assay described in the Section entitled “BIOLOGICAL EVALUATION.”

[1] = tested on: MIA PaCa-2 (human pancreatic carcinoma) cells; experiment: Cell Viability Assay (CellTiter-Glo), MIA PaCa-2; assay type: cell-based; details: Homo sapiens, MIA PaCa-2, 72 h
Protocol: Serially-diluted compound or DMSO was added to the cells, and plates were incubated at 37° C., 5% CO2 for 72 h. Cell viability was measured using a CellTiter-Glo® Luminescent Cell Viability Assay kit (Promega) according to the manufacturer's protocol. The luminescence signal of treated samples was normalized to DMSO control, and data were analyzed using a 4-parameter logistic model to calculate IC50 values.

[2] = tested on: A549 (human lung carcinoma) cells; experiment: Cell Viability Assay (CellTiter-Glo), A549; assay type: cell-based; details: Homo sapiens, A549, 72 h
Outline: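 After a 72 h exposure to serial compound dilutions at 37° C, luminescent ATP content was measured with CellTiter-Glo. The cells were A549 or MIA PaCa-2, seeded at 1.67E+04 cells/mL in RPMI 1640 with 10% serum. Signals were normalized to DMSO controls and IC50 fitted with a 4-parameter logistic model.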

[3] = SOS-mediated nucleotide exchange

Sequence of KRAS G12C (P01116 other isoform, or with tags, fused parts or gaps G12C/C118A): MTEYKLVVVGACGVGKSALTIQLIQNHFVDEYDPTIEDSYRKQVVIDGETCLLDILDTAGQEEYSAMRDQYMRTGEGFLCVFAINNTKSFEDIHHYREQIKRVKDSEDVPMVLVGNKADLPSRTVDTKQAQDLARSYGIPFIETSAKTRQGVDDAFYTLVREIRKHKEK

SMILES	IC50 (KRAS G12C; [3]) [nM]	IC50 [1] [nM]	IC50 [2] [nM]	IC50 (KRAS G12C) [nM]
C=CC(=O)N1CC2(CCN(c3nc4c(c(-c5c(C)ccc6[nH]ncc56)c3C#N)CCCCC4)C2)C1 [Example 2-10, 4-(5-methyl-1H-indazol-4-yl)-2-(2-(2-propenoyl)-2,6-diazaspiro[3.4]octan-6-yl)-6,7,8,9-tetrahydro-5H-cyclohepta[b]pyridine-3-carbonitrile]	44	452	> 5000	
C=CC(=O)N1CC2(CCN(c3nc4c(c(-c5ccc(F)cc5F)c3C#N)CCN(C(C)C)C4)[C@H]2C)C1 [Example 21-18, 4-(2,4-difluorophenyl)-2-((5S)-5-methyl-2-(2-propenoyl)-2,6-diazaspiro[3.4]octan-6-yl)-7-(2-propanyl)-5,6,7,8-tetrahydro-1,7-naphthyridine-3-carbonitrile]		2820	10200	853
C=CC(=O)N1CC2(CCN(c3nc4c(c(-c5c(C)ccn6cncc56)c3C#N)C[C@H]3C[C@@H]4C3(C)C)C2)C1 [Example 12-19, (1R,9R)-10,10-dimethyl-6-(7-methylimidazo[1,5-a]pyridin-8-yl)-4-(2-(2-propenoyl)-2,6-diazaspiro[3.4]octan-6-yl)-3-azatricyclo[7.1.1.0^2,7] undeca-2,4,6-triene-5-carbonitrile]	37	18	3740	
C=CC(=O)N1CC2(CCN(c3nc4c(c(-c5ccccc5F)c3C#N)CCN(c3nccn3C)C4)C2)C1 [Example 34-1, 4-(2-fluorophenyl)-7-(1-methyl-1H-imidazol-2-yl)-2-(2-(2-propenoyl)-2,6-diazaspiro[3.4]octan-6-yl)-5,6,7,8-tetrahydro-1,7-naphthyridine-3-carbonitrile]		3510	14100	814
C=CC(=O)N1CC2(CCN(c3nc4c(c(-c5c(C)ccc6c(Cl)c[nH]c56)c3C#N)COC(C)(C)C4)C2)C1 [Example 12-20, 4-(3-chloro-6-methyl-1H-indol-7-yl)-7,7-dimethyl-2-(2-(2-propenoyl)-2,6-diazaspiro[3.4]octan-6-yl)-7,8-dihydro-5H-pyrano[4,3-b]pyridine-3-carbonitrile]	105	2570	> 5000	
C=CC(=O)N1CC2(CCN(c3nc4c(c(-c5c(C)ccc6cnn(C)c56)c3C#N)CC[C@H]3C[C@@H]43)C2)C1 (single isomer, unassigned) [Example 13-137, (6a,7a)-4-(1,6-dimethyl-1H-indazol-7-yl)-2-(2-(2-propenoyl)-2,6-diazaspiro[3.4]octan-6-yl)-6,6a,7,7a-tetrahydro-5H-cyclopropa[h]quinoline-3-carbonitrile]	72	468	> 5000	
C=CC(=O)N1CC2(CCN(c3nc4c(c(-c5cccc(F)c5O)c3C)CC[C@H](c3c(C)cnn3C)C4)C2)C1 [Example 14-95, 1-(6-((7S)-7-(1,4-dimethyl-1H-pyrazol-5-yl)-4-(3-fluoro-2-hydroxyphenyl)-3-methyl-5,6,7,8-tetrahydro-2-quinolinyl)-2,6-diazaspiro[3,4]octan-2-yl)-2-propen-1-one]		3350	15400	687
C=CC(=O)N1CC2(CCN(c3nc4c(c(-c5cc(O)ccc5Cl)c3C#N)C3CCC4N(C(C)C)C3)C2)C1 (stereo not drawn) [Example 21-26]		337	18400	334
C=CC(=O)N1CC2(CCN(c3nc4c(c(-c5cc(O)ccc5C)c3F)C[C@H]3C[C@@H]4C3(C)C)C2)C1 (single isomer, unassigned) [Example 14-59]		293	> 5000	25
C=CC(=O)N1CC2(CCN(c3nc(-c4ccccc4F)c4c(n3)N(C)CCC4)C2)C1 [Example 1-33, 1-(6-(4-(2-fluorophenyl)-8-methyl-5,6,7,8-tetrahydropyrido[2,3-d]pyrimidin-2-yl)-2,6-diazaspiro[3,4]octan-2-yl)-2-propen-1-one]	174000	13400	13400	
C=CC(=O)N1CC2(CCN(c3nc4c(c(-c5ccccc5F)c3C#N)CCC(c3ccnn3C)C4)C2)C1 [Example 13-26, (7R)-4-(2-fluorophenyl)-7-(1-methyl-1H-pyrazol-5-yl)-2-(2-(2-propenoyl)-2,6-diazaspiro[3.4]octan-6-yl)-5,6,7,8-tetrahydro-3-quinolinecarbonitrile|(7S)-4-(2-fluorophenyl)-7-(1-methyl-1H-pyrazol-5-yl)-2-(2-(2-propenoyl)-2,6-diazaspiro[3.4]octan-6-yl)-5,6,7,8-tetrahydro-3-quinolinecarbonitrile]	35	280	> 5000	
C=CC(=O)N1CC2(CCN(c3nc4cc(-c5scnc5C)ccc4c(-c4ccccc4F)c3C#N)C2)C1 [Example 20-2, 4-(2-fluorophenyl)-7-(4-methyl-1,3-thiazol-5-yl)-2-(2-(2-propenoyl)-2,6-diazaspiro[3.4]octan-6-yl)-3-quinolinecarbonitrile]		1440	> 5000	146
C=CC(=O)N1CC2(C1)CN(c1nc3c(F)cccc3c(-c3c(C)ccc4[nH]ncc34)c1C#N)CC2F (stereo not drawn) [Example 1-13, 8-fluoro-2-((8)-8-fluoro-2-(2-propenoyl)-2,6-diazaspiro[3.4]octan-6-yl)-4-(5-methyl-1H-indazol-4-yl)-3-quinolinecarbonitrile]	601	1880	3120	
C=CC(=O)N1CC2(CCN(c3nc4ccccc4c(-c4c(C)c(F)cc5[nH]ncc45)c3C#N)C2)C1 [Example 14-2, 4-(6-fluoro-5-methyl-1H-indazol-4-yl)-2-(2-(2-propenoyl)-2,6-diazaspiro[3.4]octan-6-yl)-3-quinolinecarbonitrile]	87	458	> 5000	
C=CC(=O)N1CC2(CCN(c3nc4c(c(-c5cc(O)cc6nccnc56)c3C#N)C[C@H]3C[C@@H]4C3(C)C)C2)C1 (single isomer, unassigned) [Example 12-38]	137	> 5000	> 5000	
C=CC(=O)N1CC2(CCN(c3nc4ccccc4c(-c4c(C)ccc5[nH]ncc45)c3C)[C@H]2C)C1 (single isomer, unassigned) [Example 2-57]	106	921	> 5000	
C=CC(=O)N1CC2(CCN(c3nc4c(c(-c5cc(O)ccc5F)c3C#N)CCC(c3scnc3C)=C4)C2)C1 [Example 23-47, 4-(2-fluoro-5-hydroxyphenyl)-7-(4-methyl-1,3-thiazol-5-yl)-2-(2-(2-propenoyl)-2,6-diazaspiro[3.4]octan-6-yl)-5,6-dihydro-3-quinolinecarbonitrile]		> 5000	> 5000	44
C=CC(=O)N1CC2(CCN(c3nc4c(c(-c5cc(O)ccc5Cl)c3C#N)CCN(C3CCCN(C)C3)C4)C2)C1 [Example 21-36, 4-(2-chloro-5-hydroxyphenyl)-7-((3R)-1-methyl-3-piperidinyl)-2-(2-(2-propenoyl)-2,6-diazaspiro[3.4]octan-6-yl)-5,6,7,8-tetrahydro-1,7-naphthyridine-3-carbonitrile 4-(2-chloro-5-hydroxyphenyl)-7-((3S)-1-methyl-3-piperidinyl)-2-(2-(2-propenoyl)-2,6-diazaspiro[3.4]octan-6-yl)-5,6,7,8-tetrahydro-1,7-naphthyridine-3-carbonitrile]		174	> 5000	167
C=CC(=O)N1CC2(CCN(c3nc4c(c(-c5ncccc5F)c3C#N)CC[C@@H](c3scnc3C)C4)C2)C1 (racemic) [Example 23-57, (7R)-4-(3-fluoro-2-pyridinyl)-7-(4-methyl-1,3-thiazol-5-yl)-2-(2-(2-propenoyl)-2,6-diazaspiro[3.4]octan-6-yl)-5,6,7,8-tetrahydro-3-quinolinecarbonitrile (7S)-4-(3-fluoro-2-pyridinyl)-7-(4-methyl-1,3-thiazol-5-yl)-2-(2-(2-propenoyl)-2,6-diazaspiro[3.4]octan-6-yl)-5,6,7,8-tetrahydro-3-quinolinecarbonitrile]		299	> 5000	85
C=CC(=O)N1CC2(CCN(c3nc4cc(-c5scnc5C)cnc4c(-c4cccc(O)c4)c3C#N)C2)C1 [Example 20-21, 4-(3-hydroxyphenyl)-7-(4-methyl-1,3-thiazol-5-yl)-2-(2-(2-propenoyl)-2,6-diazaspiro[3.4]octan-6-yl)-1,5-naphthyridine-3-carbonitrile]		4970	10800	958
C=CC(=O)N1CC2(CCN(c3cn4ccnc4c(-c4c(C)ccc5[nH]ncc45)c3C#N)C2)C1 [Example 1-5]	520	1630	50000	
C=CC(=O)N1CC2(CCN(c3nc4c(c(-c5ccccc5F)c3C#N)CCN(c3ccnn3C)C4)C2)C1 [Example 21-2, 4-(2-fluorophenyl)-7-(1-methyl-1H-pyrazol-5-yl)-2-(2-(2-propenoyl)-2,6-diazaspiro[3.4]octan-6-yl)-5,6,7,8-tetrahydro-1,7-naphthyridine-3-carbonitrile]		805	> 5000	189

— patent US20240059703A1 (AMGEN INC., priority 2021, published 2024)
